We go through 4 compounds from patent publication US10040838B2, “CRHR2 peptide agonists and uses thereof” (JANSSEN PHARMACEUTICA NV, priority 2008, dated 2018).

SMILES strings stand for the structures. Residues, ends and D or L forms follow the SMILES beside them. *: point of attachment. Succinimide(1-Et,3-yl) = CCN1C(=O)CC(*)C1=O

The target in the experiment is T1, human CRHR2 (Homo sapiens, UniProt Q13324).
T1 construct: expressed in transfected cells
T1 sequence (Q13324 1-411): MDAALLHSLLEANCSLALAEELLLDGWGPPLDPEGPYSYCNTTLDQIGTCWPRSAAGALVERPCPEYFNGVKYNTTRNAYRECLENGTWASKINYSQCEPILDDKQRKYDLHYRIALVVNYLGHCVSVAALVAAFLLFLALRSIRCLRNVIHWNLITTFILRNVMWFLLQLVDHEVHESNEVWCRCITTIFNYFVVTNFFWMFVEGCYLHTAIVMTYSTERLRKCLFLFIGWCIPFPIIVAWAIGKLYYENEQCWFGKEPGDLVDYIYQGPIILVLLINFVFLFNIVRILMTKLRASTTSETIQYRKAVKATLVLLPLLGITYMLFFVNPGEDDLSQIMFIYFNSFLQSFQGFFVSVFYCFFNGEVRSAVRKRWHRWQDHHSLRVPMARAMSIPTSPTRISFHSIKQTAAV
The experiment can be described thus: cAMP assay in h-CRHR2 transfected SK-N-MC cells. The format is cell-based. Conditions: Table 13; h-SCP control pA50 minus test compound pA50 within same assay batch. How it is done:
The concentration required for 50% maximum effect (A50) was 0.4 nM.
Human CRHR1 (accession number X72304) or CRHR2 (accession number U34587) were cloned into pcDNA3.1/Zeo expression vector and stably transfected into SK-N-MC cells by electroporation. Cells were maintained in MEM w/Earl's Salt with 10% FBS, 50 I.U. penicillin, 50 μg/ml streptomycin, 2 mM L-glutamine, 1 mM sodium pyruvate and 0.1 mM nonessential amino acids, 600 μg/ml G418. Cells were grown at 37° C. in 5% CO2.
Cells were plated in 96-well tissue culture dishes (Biocoat from BD Biosciences) overnight at 50,000 cell/well. Cells were washed with PBS then resuspended in DMEM F-12 without phenol red, containing 10 μM isobutylmethylxanthine (IBMX). Cells were incubated with the peptides at concentrations ranging from 1 pM to 10 μM for 60 min at 37° Celsius. […] Forskolin (10 μM), a direct stimulant of adenylate cyclase, was used as positive control. The assays were stopped by the addition of 0.5 M HCl and mixing by orbital rotation for 2 h at 4° Celsius.
To assess the activity of the inventive peptide at the CRHR2, an intracellular cAMP measurement test using a Flash plate radioactive assay (Catalog No. Cus56088; Perkin Elmer, MA, U.S.A.) was employed.
Transfected SK-N-MC cells were plated in 96-well Biocoat tissue culture dishes (BD Biosciences, San Jose, Calif., U.S.A) overnight at 50,000 cell/well. Cells were first washed with PBS and then suspended with DMEM/F-12 without phenol red, containing […]. Suspended cells were transferred into a 96-well flash plate coated with scintillant fluid. Cells were incubated with peptides ranging from […], for 60 min, at 37° Celsius. Forskolin at 10 μM was used as positive control. After ligand stimulation, cells were lysed by the addition of 0.5M HCl and mixed by orbital rotation for 2 h at 4° Celsius in order to release intracellular cAMP into the media.
Media containing released intracellular cAMP was transferred to a 96-well flash plate coated with scintillant fluid containing an anti-cAMP antibody. In this assay, intracellular cAMP competes with ^125I-labeled cAMP binding to the antibody. To generate a standard curve, cAMP ranging from 2.5 to 250 pmoles/ml was included in the experiment. [^125I]-cAMP was measured on a TopCount scintillation counter (Perkin Elmer, MA, U.S.A).
Individual agonist concentration-response curve data were fitted to the Hill equation, see formula below, using GraphPad Prism (Graphpad Software, La Jolla, Calif., U.S.A.), to provide estimates of agonist concentration needed to generate one-half maximal response (A50), and the maximal asymptote (α) and Hill slope (nH) parameters. In this equation, [A] is the agonist concentration and E is the measured effect:
For display purposes the mean fitted parameter estimates were used to generate a single E/[A] curve shown superimposed on the mean experimental data. Potency estimates for agonists, pA50, are expressed as the negative logarithm of the midpoint of each curve and listed with their standard error of measurement (SEM). Logarithm base 10 of the agonist dose ratio (Log DR) values were calculated by subtraction of the test compound pA50 value from the corresponding h-SCP (SEQ ID NO:1) control pA50 value within the same assay batch. The SEM values of the Log DR values are given by the square root of the sum of the squared SEM values of the h-SCP (SEQ ID NO:1) control and test compound pA50 values.
Human and rat peptides (see Table 10) were used on the stimulation of h-CRHR1 or h-CRHR2 transfected SK-N-MC cells in the cAMP flash plate assay. Peptides were incubated for 1 hr at 37° Celsius. Curves were calculated using non-linear regression sigmoidal concentration-response analysis calculation in GraphPad Prism. The so obtained pA50 values are shown in Table 11 in addition to literature values. […]
Background: Cyclic AMP is a second messenger, typically raised through Gs and lowered through Gi signalling.
`CC[C@H](C)[C@H](NC(=O)[C@H](CCC(N)=O)NC(=O)[C@H](C)NC(=O)[C@H](CCSC)NC(=O)[C@H](CC(C)C)NC(=O)[C@H](Cc1c[nH]cn1)NC(=O)[C@H](C)NC(=O)[C@H](CC(N)=O)NC(=O)[C@H](C)NC(=O)[C@H](C)NC(=O)[C@H](C)NC(=O)[C@H](CCC(N)=O)NC(=O)[C@H](C)NC(=O)[C@H](CCCNC(=N)N)NC(=O)[C@H](CC(C)C)NC(=O)[C@H](CC(N)=O)NC(=O)[C@H](CSC1CC(=O)N(CC)C1=O)NC(=O)[C@H](C)NC(=O)[C@H](CCCCN)NC(=O)[C@H](C)NC(=O)[C@@H](NC(=O)[C@H](CC(N)=O)NC(=O)[C@H](Cc1ccccc1)NC(=O)[C@H](CC(C)C)NC(=O)[C@H](CC(C)C)NC(=O)[C@H](CC(N)=O)NC(=O)[C@H](CCSC)NC(=O)[C@@H](NC(=O)[C@H](CC(N)=O)NC(=O)[C@@H](NC(=O)[C@@H]1CCCN1C(=O)[C@@H](NC(=O)[C@H](CC(=O)O)NC(=O)[C@H](CC(C)C)NC(=O)[C@H](CO)NC(=O)[C@H](CC(C)C)NC(=O)[C@@H](NC(=O)[C@H](Cc1ccccc1)NC(=O)[C@H](CCCCN)NC(=O)[C@@H](N)[C@@H](C)O)[C@@H](C)O)C(C)C)[C@@H](C)O)[C@@H](C)CC)[C@@H](C)CC)C(N)=O` (stereo partly shown) [SEQ ID NO: 50, TKFTLSLDVPTNIMNLLFNIAKAC(-NES)N LRAQA AANAH LMAQI-NH2] (H-TKFTLSLDVPTNIMNLLFNIAKAC(Succinimide(1-Et,3-yl))NLRAQAAANAHLMAQI-NH2; N-terminus assumed): the “Log DR” value is given as −0.01. To `CC[C@H](C)[C@H](NC(=O)[C@H](CCC(N)=O)NC(=O)[C@H](C)NC(=O)[C@H](CCSC)NC(=O)[C@H](CC(C)C)NC(=O)[C@H](Cc1c[nH]cn1)NC(=O)[C@H](C)NC(=O)[C@H](CC(N)=O)NC(=O)[C@H](C)NC(=O)[C@H](C)NC(=O)[C@H](C)NC(=O)[C@H](CCC(N)=O)NC(=O)[C@H](C)NC(=O)[C@H](CCCNC(=N)N)NC(=O)[C@H](CC(C)C)NC(=O)[C@H](CC(N)=O)NC(=O)[C@H](CCCCN)NC(=O)[C@H](C)NC(=O)[C@H](CCCCN)NC(=O)[C@H](C)NC(=O)[C@H](CSC1CC(=O)N(CC)C1=O)NC(=O)[C@H](CC(N)=O)NC(=O)[C@H](Cc1ccccc1)NC(=O)[C@H](CC(C)C)NC(=O)[C@H](CC(C)C)NC(=O)[C@H](CC(N)=O)NC(=O)[C@H](CCSC)NC(=O)[C@@H](NC(=O)[C@H](CC(N)=O)NC(=O)[C@@H](NC(=O)[C@@H]1CCCN1C(=O)[C@@H](NC(=O)[C@H](CC(=O)O)NC(=O)[C@H](CC(C)C)NC(=O)[C@H](CO)NC(=O)[C@H](CC(C)C)NC(=O)[C@@H](NC(=O)[C@H](Cc1ccccc1)NC(=O)[C@H](CCCCN)NC(=O)[C@@H](N)[C@@H](C)O)[C@@H](C)O)C(C)C)[C@@H](C)O)[C@@H](C)CC)C(N)=O` (stereo partly shown) [SEQ ID NO: 51, TKFTL SLDVP TNIMN LLFNC(-NES) AKAKN LRAQA AANAH LMAQI-NH2] (H-TKFTLSLDVPTNIMNLLFNC(Succinimide(1-Et,3-yl))AKAKNLRAQAAANAHLMAQI-NH2; N-terminus assumed) belongs 0.68.

With `CC[C@H](C)[C@H](NC(=O)[C@H](CCC(N)=O)NC(=O)[C@H](C)NC(=O)[C@H](CCSC)NC(=O)[C@H](CC(C)C)NC(=O)[C@H](Cc1c[nH]cn1)NC(=O)[C@H](C)NC(=O)[C@H](CC(N)=O)NC(=O)[C@H](C)NC(=O)[C@H](C)NC(=O)[C@H](C)NC(=O)[C@H](CCC(N)=O)NC(=O)[C@H](C)NC(=O)[C@H](CCCNC(=N)N)NC(=O)[C@H](CC(C)C)NC(=O)[C@H](CC(N)=O)NC(=O)[C@H](CCCCN)NC(=O)[C@H](C)NC(=O)[C@H](CCCCN)NC(=O)[C@H](C)NC(=O)[C@@H](NC(=O)[C@H](CSC1CC(=O)N(CC)C1=O)NC(=O)[C@H](Cc1ccccc1)NC(=O)[C@H](CC(C)C)NC(=O)[C@H](CC(C)C)NC(=O)[C@H](CC(N)=O)NC(=O)[C@H](CCSC)NC(=O)[C@@H](NC(=O)[C@H](CC(N)=O)NC(=O)[C@@H](NC(=O)[C@@H]1CCCN1C(=O)[C@@H](NC(=O)[C@H](CC(=O)O)NC(=O)[C@H](CC(C)C)NC(=O)[C@H](CO)NC(=O)[C@H](CC(C)C)NC(=O)[C@@H](NC(=O)[C@H](Cc1ccccc1)NC(=O)[C@H](CCCCN)NC(=O)[C@@H](N)[C@@H](C)O)[C@@H](C)O)C(C)C)[C@@H](C)O)[C@@H](C)CC)[C@@H](C)CC)C(N)=O` (stereo partly shown) [SEQ ID NO: 52, TKFTL SLDVP TNIMN LLFC(-NES)I AKAKN LRAQA AANAH LMAQI-NH2] (H-TKFTLSLDVPTNIMNLLFC(Succinimide(1-Et,3-yl))IAKAKNLRAQAAANAHLMAQI-NH2; N-terminus assumed), the “Log DR” value was 0.05.

As to `CC[C@H](C)[C@H](NC(=O)[C@H](CCC(N)=O)NC(=O)[C@H](C)NC(=O)[C@H](CCSC)NC(=O)[C@H](CC(C)C)NC(=O)[C@H](Cc1c[nH]cn1)NC(=O)[C@H](C)NC(=O)[C@H](CC(N)=O)NC(=O)[C@H](C)NC(=O)[C@H](C)NC(=O)[C@H](C)NC(=O)[C@H](CCC(N)=O)NC(=O)[C@H](C)NC(=O)[C@H](CCCNC(=N)N)NC(=O)[C@H](CC(C)C)NC(=O)[C@H](CC(N)=O)NC(=O)[C@H](CCCCN)NC(=O)[C@H](C)NC(=O)[C@H](CCCCN)NC(=O)[C@H](C)NC(=O)[C@@H](NC(=O)[C@H](CC(N)=O)NC(=O)[C@H](Cc1ccccc1)NC(=O)[C@H](CSC1CC(=O)N(CC)C1=O)NC(=O)[C@H](CC(C)C)NC(=O)[C@H](CC(N)=O)NC(=O)[C@H](CCSC)NC(=O)[C@@H](NC(=O)[C@H](CC(N)=O)NC(=O)[C@@H](NC(=O)[C@@H]1CCCN1C(=O)[C@@H](NC(=O)[C@H](CC(=O)O)NC(=O)[C@H](CC(C)C)NC(=O)[C@H](CO)NC(=O)[C@H](CC(C)C)NC(=O)[C@@H](NC(=O)[C@H](Cc1ccccc1)NC(=O)[C@H](CCCCN)NC(=O)[C@@H](N)[C@@H](C)O)[C@@H](C)O)C(C)C)[C@@H](C)O)[C@@H](C)CC)[C@@H](C)CC)C(N)=O` (stereo partly shown) [SEQ ID NO: 53, TKFTL SLDVP TNIMN LC(-NES)FNI AKAKN LRAQA AANAH LMAQI-NH2] (H-TKFTLSLDVPTNIMNLC(Succinimide(1-Et,3-yl))FNIAKAKNLRAQAAANAHLMAQI-NH2; N-terminus assumed), the “Log DR” value is approximately 2.22.
